Source: article PMC7194293, “Living on the Edge: Physiological and Kinetic Trade-Offs Shape Thermal Tolerance in Intertidal Crabs From Tropical to Sub-Antarctic South America” (Frontiers in Physiology, 2020)
Read-outs that look alike come from different tables or passages of the source.

Columns and labels:
Test in all cases: NADH oxidation at […] nm, muscle homogenate supernatant
[1] = system: T1, LDH (muscle lactate dehydrogenase); assay type: biochemical, Ucides cordatus; details: 150 uM NADH, 80 mM imidazole-HCl pH 6.9, 26 °C (FRT); read-out: Km^Pyr / (mM) / FRT
T1 construct: native, not purified; supernatant of abdominal muscle homogenate, pooled crabs, Pernambuco, Brazil

[2] = system: T1, LDH (muscle lactate dehydrogenase); assay type: biochemical, Cardisoma guanhumi; details: 150 uM NADH, 80 mM imidazole-HCl pH 6.9, 26 °C (FRT); read-out: Km^Pyr / (mM) / FRT
[3] = system: T2, LDH (muscle lactate dehydrogenase); assay type: biochemical, Armases rubripes; details: 150 uM NADH, 80 mM imidazole-HCl pH 6.9, 15 °C (FRT); read-out: Km^Pyr / (mM) / FRT
T2 construct: native, not purified; supernatant of abdominal muscle homogenate, pooled crabs, Rio Grande, Brazil

[4] = system: T2, LDH (muscle lactate dehydrogenase); assay type: biochemical, Neohelice granulata; details: 150 uM NADH, 80 mM imidazole-HCl pH 6.9, 15 °C (FRT); read-out: Km^Pyr / (mM) / FRT
[5] = system: T1, LDH (muscle lactate dehydrogenase); assay type: biochemical, Goniopsis cruentata; details: 150 uM NADH, 80 mM imidazole-HCl pH 6.9, 26 °C (FRT); read-out: Km^Pyr / (mM) / FRT
[6] = system: T1, LDH (muscle lactate dehydrogenase); assay type: biochemical, Ocypode quadrata; details: 150 uM NADH, 80 mM imidazole-HCl pH 6.9, 26 °C (FRT); read-out: Km^Pyr / (mM) / FRT
[7] = system: T3, LDH (muscle lactate dehydrogenase); assay type: biochemical, Halicarcinus planatus; details: 150 uM NADH, 80 mM imidazole-HCl pH 6.9, 9 °C (FRT); read-out: Km^Pyr / (mM) / FRT
T3 construct: native, not purified; supernatant of abdominal muscle homogenate, pooled crabs, Ushuaia, Argentina

[8] = system: T1, LDH (muscle lactate dehydrogenase); assay type: biochemical, Uca maracoani; details: 150 uM NADH, 80 mM imidazole-HCl pH 6.9, 26 °C (FRT); read-out: Km^Pyr / (mM) / FRT
[9] = system: T1, LDH (muscle lactate dehydrogenase); assay type: biochemical, Aratus pisonii; details: 150 uM NADH, 80 mM imidazole-HCl pH 6.9, 26 °C (FRT); read-out: Km^Pyr / (mM) / FRT
[10] = system: T3, LDH (muscle lactate dehydrogenase); assay type: biochemical, Acanthocyclus albatrossis; details: 150 uM NADH, 80 mM imidazole-HCl pH 6.9, 9 °C (FRT); read-out: Km^Pyr / (mM) / FRT
[11] = system: T2, LDH (muscle lactate dehydrogenase); assay type: biochemical, Leptuca uruguayensis; details: 150 uM NADH, 80 mM imidazole-HCl pH 6.9, 15 °C (FRT); read-out: Km^Pyr / (mM) / FRT
[12] = system: T1, LDH (muscle lactate dehydrogenase); assay type: biochemical, Pachygrapsus transversus; details: 150 uM NADH, 80 mM imidazole-HCl pH 6.9, 26 °C (FRT); read-out: Km^Pyr / (mM) / FRT

- Km [2]: 0.17 ± 0.01 mM
- Km [3]: 0.15 ± 0.01 mM
- Km [4]: 0.32 ± 0.03 mM
- Km [5]: 0.1 mM
- Km [6]: 0.15 ± 0.02 mM
- Km [7]: 0.5 mM
- Km [8]: 0.49 ± 0.05 mM
- Km [9]: 0.11 mM
- Km [10]: 0.3 mM
- Km [11]: 0.16 mM
- Km [12]: 0.2 ± 0.01 mM
SMILES: CC(=O)C(=O)O [pyruvate]
- Km [1]: 0.17 ± 0.01 mM
